Results reported in US20230172204A1 (BASF SE, priority 2020, published 2023).
Read-outs that look alike come from different tables or passages of the source.

Columns and labels:
Pyrenophora teres (wt) = assay: Micro titer plate test against Pyrenophora teres causing net blotch on barley (PYRNTE wt); assay type: cell-based; conditions: 168 h, 0.25 ppm, read-out: Fungal growth (%) PYRNTE wt
Pyricularia oryzae = assay: microbe, parasite or virus in culture; assay type: cell-based; conditions: for activity at 0.016 ppm: Pyricularia oryzae, 168 h, read-out: Fungal growth (%) PYRIOR
[1] = test system: Colletotrichum orbiculare; assay: Micro titer plate test against Colletotrichum orbiculare causing anthracnose (COLLLA); assay type: cell-based; conditions: for activity at 0.063 ppm: Colletotrichum orbiculare, 168 h, read-out: Fungal growth (%) COLLLA
Alternaria solani (wt) = assay: microbe, parasite or virus in culture; assay type: cell-based
Microdochium nivale = assay: Micro titer plate test against Microdochium nivale causing snow mould (MONGNI); assay type: cell-based; conditions: Microdochium nivale, 168 h; 0.016 ppm; read-out: Fungal growth (%) MONGNI
[2] = test system: Phakopsora pachyrhizi (F129L); assay: Protective control of soybean rust on soybeans (PHAKPA P2); assay type: in vivo; conditions: for PHAKPA (F129L) Disease level (%) P2 at 4 ppm / PHAKPA (F129L) Disease level (%) P2 at 16 ppm: P2 protective, % diseased leaf area; for % PHAKPA (F129L) Disease level P2 at 4 ppm: protective P2, 4 ppm; for % PHAKPA (F129L) Disease level P2 at 4 ppm / % PHAKPA (F129L) Disease level P2 at 16 ppm: soybean rust F129L; for % PHAKPA (F129L) Disease level P2 at 16 ppm: protective P2, 16 ppm
Leptosphaeria nodorum = assay: Micro titer plate test against Leptosphaeria nodorum causing wheat leaf spots (LEPTNO); assay type: cell-based; conditions: Parastagonospora nodorum, 168 h; 0.063 ppm; read-out: Fungal growth (%) LEPTNO
Cercospora sojina = assay: microbe, parasite or virus in culture; assay type: cell-based; conditions: Cercospora sojina, 168 h; 4 ppm; read-out: Fungal growth (%) CERCSO
[3] = test system: Alternaria solani (F129L); assay: Micro titer plate test against Alternaria solani causing early blight (ALTESO F129L); assay type: cell-based; conditions: 0.016 ppm; for activity at 0.016 ppm: Alternaria solani, 168 h, read-out: Fungal growth (%) ALTESO F129L
Septoria tritici = assay: microbe, parasite or virus in culture; assay type: cell-based; conditions: for activity at 0.25 ppm: Zymoseptoria tritici, 168 h, read-out: Fungal growth (%) SEPTTR
[4] = test system: Phakopsora pachyrhizi (F129L); assay: Protective control of soybean rust on soybeans (PHAKPA P6); assay type: in vivo; conditions: for % PHAKPA (F129L) Disease level P6 at 4 ppm: protective P6, 4 ppm; for % PHAKPA (F129L) Disease level P6 at 4 ppm / % PHAKPA (F129L) Disease level P6 at 16 ppm: soybean rust F129L; for % PHAKPA (F129L) Disease level P6 at 16 ppm: protective P6, 16 ppm
[5] = test system: Pyrenophora teres (F129L); assay: Micro titer plate test against Pyrenophora teres causing net blotch on barley (PYRNTE F129L); assay type: cell-based; conditions: 0.25 ppm
[6] = test system: Phakopsora pachyrhizi (wt); assay type: in vivo; conditions: Qo I-sensitive wt isolate (0% F129L)
[7] = Alternaria solani, 168 h, 0.016 ppm, read-out: Fungal growth (%) ALTESO wt
[8] = P6 protective, % diseased leaf area

CO/N=C(/C(=O)OC)c1cccc(C)c1CO/N=C(\C)c1cccc(Cl)c1 [Ex. 153]
activity at 0.25 ppm (Pyrenophora teres (wt)): 31% | activity at 0.016 ppm (Pyricularia oryzae): 50% | activity at 0.063 ppm [1]: 55% | activity at 0.016 ppm (Alternaria solani (wt); [7]): 71% | activity at 0.016 ppm (Microdochium nivale): 75% | PHAKPA (F129L) Disease level (%) P2 at 4 ppm [2]: 19% | PHAKPA (F129L) Disease level (%) P2 at 16 ppm [2]: 5% | % PHAKPA (F129L) Disease level P2 at 4 ppm [2]: 12% | % PHAKPA (F129L) Disease level P2 at 16 ppm [2]: 3% | activity at 0.063 ppm (Leptosphaeria nodorum): 55% | activity at 4 ppm (Cercospora sojina): 26% | activity at 0.016 ppm [3]: 68% | activity at 0.25 ppm (Septoria tritici): 0% | % PHAKPA (F129L) Disease level P6 at 4 ppm [4]: 22% | % PHAKPA (F129L) Disease level P6 at 16 ppm [4]: 1%

CNC(=O)/C(=N/OC)c1cccc(C)c1CO/N=C(\C)c1cccc(C)c1 [Ex. 77]
Fungal growth (%) PYRIOR (Pyricularia oryzae; 0.016 ppm): 20% | Fungal growth (%) COLLLA ([1]; 0.063 ppm): 39% | Fungal growth (%) ALTESO wt (Alternaria solani (wt); 0.016 ppm): 73% | PHAKPA (F129L) Disease level (%) P2 at 4 ppm [2]: 37% | % PHAKPA (F129L) Disease level P2 at 4 ppm [2]: 67% | % PHAKPA (F129L) Disease level P2 at 16 ppm [2]: 4% | Fungal growth (%) ALTESO F129L [3]: 69% | Fungal growth (%) SEPTTR (Septoria tritici; 0.25 ppm): 49% | PHAKPA (F129L) Disease level (%) P6 at 16 ppm [4, 8]: 20% | % PHAKPA (F129L) Disease level P6 at 4 ppm [4]: 40% | % PHAKPA (F129L) Disease level P6 at 16 ppm [4]: 3%

CO/N=C(/C(=O)OC)c1cccc(C)c1CO/N=C(/c1cccc(C)c1)C1CC1 [drawing 951]
Fungal growth (%) PYRNTE F129L [5]: 87% | activity at 0.016 ppm (Pyricularia oryzae): 82% | activity at 0.063 ppm [1]: 93% | activity at 0.016 ppm (Microdochium nivale): 84% | activity at 0.25 ppm (Septoria tritici): 89%

CNC(=O)/C(=N/OC)c1cccc(C)c1CO/N=C(\SC)c1cccc(Cl)c1 [drawing 968]
activity at 0.25 ppm (Pyrenophora teres (wt)): 76% | Fungal growth (%) PYRNTE F129L [5]: 80% | activity at 0.016 ppm (Microdochium nivale): 100% | activity at 4 ppm (Cercospora sojina): 78%

CO/N=C(/C(=O)OC)c1cccc(C)c1CO/N=C(\C)c1cccc(OC(F)(F)F)c1 [drawing 940]
activity at 0.25 ppm (Pyrenophora teres (wt)): 87% | Fungal growth (%) PYRNTE F129L [5]: 84% | activity at 0.016 ppm (Microdochium nivale): 86% | activity at 0.063 ppm (Leptosphaeria nodorum): 79%

Cc1cccc(-n2nnn(C)c2=O)c1COc1ccn(-c2ccc(Cl)cc2)n1 [drawing 930]
PHAKPA P1 DL Disease level (%) ([6]; 0.3 ppm): 78% | PHAKPA P1 DL Disease level (%) ([6]; 1 ppm): 80% | PHAKPA P1 DL Disease level (%) ([6]; 3 ppm): 77% | PHAKPA P1 DL Disease level (%) ([6]; 10 ppm): 48% | PHAKPA P1 DL Disease level (%) ([6]; 30 ppm): 30% | PHAKPA P1 DL Disease level (%) ([6]; 100 ppm): 18% | PHAKPA P1 DL Disease level (%) ([6]; 300 ppm): 5%

CNC(=O)/C(=N/OC)c1cccc(C)c1CO/N=C(\C)c1cccc(Cl)c1 [Ex. 157]
activity at 0.25 ppm (Pyrenophora teres (wt)): 54% | Fungal growth (%) PYRNTE F129L [5]: 58% | activity at 0.016 ppm (Pyricularia oryzae): 15% | activity at 0.063 ppm [1]: 63% | activity at 0.25 ppm (Alternaria solani (wt); Alternaria solani, 168 h, 0.25 ppm, read-out: Fungal growth (%) ALTESO wt): 27% | activity at 0.016 ppm (Microdochium nivale): 56% | % PHAKPA (F129L) Disease level P2 at 4 ppm [2]: 1% | % PHAKPA (F129L) Disease level P2 at 16 ppm [2]: 0% | activity at 4 ppm (Cercospora sojina): 36% | activity at 0.016 ppm [3]: 57% | activity at 0.25 ppm (Septoria tritici): 20% | PHAKPA (F129L) Disease level (%) P6 at 4 ppm ([4]; P6 protective, 4 ppm, % diseased leaf area): 2% | PHAKPA (F129L) Disease level (%) P6 at 16 ppm [4, 8]: 1% | % PHAKPA (F129L) Disease level P6 at 4 ppm [4]: 1% | % PHAKPA (F129L) Disease level P6 at 16 ppm [4]: 0%

CO/N=C(/C(=O)OC)c1cccc(C)c1CO/N=C(\C)c1cccc(C)c1 [Ex. 76]
activity at 0.25 ppm (Pyrenophora teres (wt)): 39% | Fungal growth (%) PYRNTE F129L [5]: 66% | activity at 0.016 ppm (Pyricularia oryzae): 43% | activity at 0.063 ppm [1]: 39% | activity at 0.016 ppm (Alternaria solani (wt); [7]): 55% | activity at 0.016 ppm (Microdochium nivale): 35% | PHAKPA (F129L) Disease level (%) P2 at 4 ppm [2]: 35% | PHAKPA (F129L) Disease level (%) P2 at 16 ppm [2]: 1% | % PHAKPA (F129L) Disease level P2 at 4 ppm [2]: 30% | % PHAKPA (F129L) Disease level P2 at 16 ppm [2]: 3% | activity at 0.063 ppm (Leptosphaeria nodorum): 39% | activity at 4 ppm (Cercospora sojina): 28% | activity at 0.016 ppm [3]: 37% | activity at 0.25 ppm (Septoria tritici): 0% | % PHAKPA (F129L) Disease level P6 at 4 ppm [4]: 9% | % PHAKPA (F129L) Disease level P6 at 16 ppm [4]: 0%

CO/N=C(/C(=O)OC)c1cccc(C)c1CO/N=C(\SC)c1cccc(C)c1 [drawing 950]
activity at 0.016 ppm (Pyricularia oryzae): 87% | activity at 0.063 ppm [1]: 81% | activity at 0.016 ppm (Microdochium nivale): 69% | activity at 0.25 ppm (Septoria tritici): 61%
